In this assay the target is T1, human Fpn Q99A (Homo sapiens, UniProt Q9NP59, Q99A).
T1 construct: expressed in transfected cells; host or cells: Xenopus laevis oocytes injected with mutant Fpn RNA (pOX(+) vector)
T1 sequence (Q9NP59 1-571 Q99A): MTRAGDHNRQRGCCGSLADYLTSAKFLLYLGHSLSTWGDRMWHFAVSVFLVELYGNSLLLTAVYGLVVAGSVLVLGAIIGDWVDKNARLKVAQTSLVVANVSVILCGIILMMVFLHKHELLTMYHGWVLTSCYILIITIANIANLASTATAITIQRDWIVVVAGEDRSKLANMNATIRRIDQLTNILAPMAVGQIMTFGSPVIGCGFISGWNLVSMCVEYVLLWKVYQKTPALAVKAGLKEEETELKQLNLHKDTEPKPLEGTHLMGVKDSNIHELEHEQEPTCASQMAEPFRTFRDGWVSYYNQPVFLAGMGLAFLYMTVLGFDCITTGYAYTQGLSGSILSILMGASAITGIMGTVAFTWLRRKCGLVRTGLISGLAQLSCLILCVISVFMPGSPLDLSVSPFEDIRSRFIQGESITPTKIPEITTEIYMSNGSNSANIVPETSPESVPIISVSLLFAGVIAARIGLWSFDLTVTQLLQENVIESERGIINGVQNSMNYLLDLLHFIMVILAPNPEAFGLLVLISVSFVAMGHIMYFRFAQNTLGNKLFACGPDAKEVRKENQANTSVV
Description: 55Fe efflux assay in Xenopus oocytes expressing Q99A mutant human Fpn. The assay is classed as cell-based. Conditions: fit by Eq. (2), ± SEM, read-out: K0.5Ca, half-maximal extracellular Ca2+ concentration for stimulation of 55Fe efflux. The method, then:
We performed laparotomy and ovariectomy on adult female Xenopus laevis frogs (Nasco, Fort Atkinson, WI) under 2-aminoethylbenzoate methanesulfonate anesthesia (0.2%, by immersion, to effect) following a protocol approved by the University of Cincinnati Institutional Animal Care and Use Committee. Ovarian tissue was isolated and treated for 3 h with […] collagenase A (Roche Diagnostics Corp., Indianapolis, IN) in calcium-free-modified Barths’ medium (MBM) of composition 88 mM NaCl, 1 mM KCl, 2.4 mM NaHCO3, 1.57 mM MgSO4, 0.66 mM NaNO3, 10 mM 4-(2-hydroxyethyl)-1-piperazineethanesulfonic acid (HEPES), buffered to pH 7.5 by using 2-amino-2-hydroxymethyl-propane-1,3-diol (Tris base). […]
We measured metal efflux from oocytes expressing Fpn by using a radiotracer assay. […]
To initiate the efflux assay, we placed oocytes in standard efflux medium of composition 100 mM NaCl, 1 mM KCl, 2 mM CaCl2, 1 mM MgCl2, 0.5 mM bathophenanthroline disulfonic acid (BPS), 1 mM nitrilotriacetic acid (NTA) trisodium salt, 50 μg/ml apotransferrin (ApoTf) (R&D Systems Inc., Minneapolis, MN), buffered with 0–5 mM MES, and 0–5 mM N′,N′-diethylpiperazine to obtain pH 7.5, with the following exceptions. […] The corresponding oocytes were rinsed twice in ice-cold medium (without BPS), solubilized with 5% (w/v) sodium dodecyl sulfate, and counted (Nt). […]

For `[Ca+2]` [Ca^2+, calcium], the EC50 was 2400 µM.

(Values after PMC6079014, “Calcium is an essential cofactor for metal efflux by the ferroportin transporter family” (Nature Communications, 2018).)
